Our source for the EC50 values is patent US8697641B2, “4-amino-4-oxobutanoyl peptide cyclic analogues, inhibitors of viral replication” (Achillion Pharmaceuticals, Inc., priority 2008, dated 2014).

Some results are limits rather than exact numbers.

The assay relates to Hepatitis C replicon. Kind of assay: HCV replicon assay (NPT ELISA readout) in Huh-7 replicon-containing cells. To be noted: Hepatitis C virus, 72 h; HCV replicon in Huh-7 cells, three days incubation. It is filed as cell-based, Hepatitis C virus. An outline of the steps:
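Replication is measured as neomycin phosphotransferase level by captured ELISA after three days of compound exposure (typically 10 to 0.03 μM, 6 concentrations) at 37 °C. Cells are Huh-7 harbouring an HCV replicon with neo gene and NS3-NS5B; interferon alpha is the positive control.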
A general note: In antiviral work, replicon cells carry a viral genome segment that copies itself.

In the case of `COc1ccc2c(O[C@@H]3C[C@H]4C(=O)N[C@]5(C(=O)NS(=O)(=O)C6CC6)C[C@H]5/C=C\CCCCC[C@H](CC(=O)N5CCC(C(F)(F)F)CC5)C(=O)N4C3)cc(-c3ccccn3)nc2c1C` [Compound 117, (2R,6R,14aR,16aS,Z)-N-(cyclopropylsulfonyl)-2-(7-methoxy-8-methyl-2-(pyridin-2-yl)quinolin-4-yloxy)-5, 16-dioxo-6-(2-oxo-2-(4-(trifluoromethyl)piperidin-1-yl)ethyl)-1,2,3,5,6,7,8,9,10,11, 13a,14,14a,15,16,16a-hexadecahydrocyclopropa [e]pyrrolo[1,2-a][1,4] diazacyclopentadecine-14a-carboxamide], the EC50 (as a rule, the concentration giving half of the maximal effect) is more than 10000 nM. The result for `COc1ccc2c(O[C@@H]3C[C@H]4C(=O)N[C@]5(C(=O)NS(=O)(=O)C6CC6)C[C@H]5/C=C\CCCCC[C@H](CC(=O)N5CCCCC5)C(=O)N4C3)cc(-c3nc(C(C)C)cs3)nc2c1` [Compound 118, (2R,6R,14aR,16aS,Z)-N-(cyclopropylsulfonyl)-2-(2-(4-isopropylthiazol-2-yl)-7-methoxyquinolin-4-yloxy)-5,16-dioxo-6-(2-oxo-2-(piperidin-1-yl)ethyl)-1,2,3,5,6,7,8,9,10,11, 13a,14,14a,15,16,16a-hexadecahydrocyclopropa [e]pyrrolo[1,2-a][1,4] diazacyclopentadecine-14a-carboxamide] reads less than 1000 nM; that for `COc1ccc2c(O[C@@H]3C[C@H]4C(=O)N[C@]5(C(=O)NS(=O)(=O)C6CC6)C[C@H]5/C=C\CCCCC[C@H](CC(=O)N5CCC(C(F)(F)F)CC5)C(=O)N4C3)cc(-c3nc(C(C)C)cs3)nc2c1` [Compound 119, (2R,6R,14aR,16aS,Z)-N-(cyclopropylsulfonyl)-2-(2-(4-isopropylthiazol-2-yl)-7-methoxyquinolin-4-yloxy)-5,16-dioxo-6-(2-oxo-2-(4-(trifluoromethyl)piperidin-1-yl)ethyl)-1,2,3,5,6,7,8,9,10,11, 13a,14,14a,15,16,16a-hexadecahydrocyclopropa [e]pyrrolo[1,2-a][1,4] diazacyclopentadecine-14a-carboxamide], less than 1000 nM; that for `COc1ccc2c(O[C@@H]3C[C@H]4C(=O)N[C@]5(C(=O)NS(=O)(=O)C6CC6)C[C@H]5/C=C\CCCCC[C@H](CC(=O)N5CCCCC5)C(=O)N4C3)cc(-c3ccccc3)cc2c1` [Compound 120, (2R,6R,14aR,16aS,Z)-N-(cyclopropylsulfonyl)-2-(6-methoxy-3-phenylnaphthalen-1-yloxy)-5,16-dioxo-6-(2-oxo-2-(piperidin-1-yl)ethyl)-1,2,3,5,6,7,8,9,10,11, 13a,14,14a,15,16,16a-hexadecahydrocyclopropa [e]pyrrolo[1,2-a][1,4] diazacyclopentadecine-14a-carboxamide], less than 1000 nM. The result for `COc1ccc2c(O[C@@H]3C[C@H]4C(=O)N[C@]5(C(=O)NS(=O)(=O)C6CC6)C[C@H]5/C=C\CCCCC[C@H](CC(=O)N5CCC(C(F)(F)F)CC5)C(=O)N4C3)cc(-c3csc(NC(C)C)n3)nc2c1C` [Compound 121, (2R,6R,13aS,16aS,Z)-N-(cyclopropylsulfonyl)-2-(2-(2-(isopropylamino)thiazol-4-yl)-7-methoxy-8-methylquinolin-4-yloxy)-5,16-dioxo-6-(2-oxo-2-(4-(trifluoromethyl)piperidin-1-yl)ethyl)-1,2,3,5,6,7,8,9,10,11, 13a,14,14a,15,16,16a-hexadecahydrocyclopropa [e]pyrrolo[1,2-a][1,4] diazacyclopentadecine-14a-carboxamide] reads less than 1000 nM; that for `COc1ccc2c(O[C@@H]3C[C@H]4C(=O)N[C@]5(C(=O)NS(=O)(=O)C6CC6)C[C@H]5/C=C\CCCCC[C@H](CC(=O)N5CCCCC5)C(=O)N4C3)nccc2c1Cl` [Compound 122, (2R,6R,13aS,16aS, Z)-2-(5-chloro-6-methoxylsoquinolin-1-yloxy)-N-(cyclopropylsulfonyl)-5, 16-dioxo-6-(2-oxo-2-(piperidin-1-yl)ethyl)-1,2,3,5,6,7,8,9,10,11, 13a,14,14a,15,16,16a-hexadecahydrocyclopropa [e]pyrrolo[1,2-a][1,4] diazacyclopentadecine-14a-carboxamide], less than 1000 nM; that for `COc1ccc2c(O[C@@H]3C[C@H]4C(=O)N[C@]5(C(=O)NS(=O)(=O)C6CC6)C[C@H]5/C=C\CCCCC[C@H](CC(=O)N5CCCC(F)(F)C5)C(=O)N4C3)nccc2c1Cl` [Compound 123, (2R,6R,13aS,16aS, Z)-2-(5-chloro-6-methoxylsoquinolin-1-yloxy)-N-(cyclopropylsulfonyl)-6-(2-(3,3-difluoropiperidin-1-yl)-2-oxoethyl)-5,16-dioxo-1,2,3,5,6,7,8,9,10,11, 13a,14,14a,15,16,16a-hexadecahydrocyclopropa [e]pyrrolo[1,2-a][1,4] diazacyclopentadecine-14a-carboxamide], more than 10000 nM. For `COc1ccc2c(O[C@@H]3C[C@H]4C(=O)N[C@]5(C(=O)NS(=O)(=O)C6CC6)C[C@H]5/C=C\CCCCC[C@H](CC(=O)N5CCC(C(F)(F)F)CC5)C(=O)N4C3)nccc2c1Cl` [Compound 124] the value was less than 1000 nM.

For the molecule `O=C1N[C@]2(C(=O)NS(=O)(=O)C3CC3)C[C@H]2/C=C\CCCCC[C@H](CC(=O)N2CCC(C(F)(F)F)CC2)C(=O)N2C[C@H](Oc3cc(-c4ccccn4)nc4c5c(ccc34)CCC5)C[C@@H]12` [Compound 125, (2R,6R,13aS,16aS,Z)-N-(cyclopropylsulfonyl)-5,16-dioxo-6-(2-oxo-2-(4-(trifluoromethyl)piperidin-1-yl)ethyl)-2-(2-(pyridin-2-yl)-8,9-dihydro-7H-cyclopenta[h]quinolin-4-yloxy)-1,2,3,5,6,7,8,9,10,11, 13a,14,14a,15,16,16a-hexadecahydrocyclopropa [e]pyrrolo[1,2-a][1,4] diazacyclopentadecine-14a-carboxamide], the EC50 is less than 1000 nM.

In the case of `COc1ccc2c(O[C@@H]3C[C@H]4C(=O)N[C@]5(C(=O)NS(=O)(=O)C6CC6)C[C@H]5/C=C\CCCCC[C@H](CC(=O)N5CCC(C(F)(F)F)CC5)C(=O)N4C3)cc(-c3nc(C(C)C)cs3)nc2c1C` [Compound 126, (2R,6R,14aR,16aS,Z)-N-(cyclopropylsulfonyl)-2-(2-(4-isopropylthiazol-2-yl)-7-methoxy-8-methylquinolin-4-yloxy)-5,16-dioxo-6-(2-oxo-2-(4-(trifluoromethyl)piperidin-1-yl)ethyl)-1,2,3,5,6,7,8,9,10,11, 13a,14,14a,15,16,16a-hexadecahydrocyclopropa [e]pyrrolo[1,2-a][1,4] diazacyclopentadecine-14a-carboxamide], the EC50 was less than 1000 nM. The result for `O=C1N[C@]2(C(=O)NS(=O)(=O)C3CC3)C[C@H]2/C=C\CCCCC[C@H](CC(=O)N2CCCC(F)(F)C2)C(=O)N2C[C@H](Oc3cc(-c4ccccn4)nc4c5c(ccc34)CCC5)C[C@@H]12` [Compound 127, (2R,6R,13aS,16aS,Z)-N-(cyclopropylsulfonyl)-6-(2-(3,3-difluoropiperidin-1-yl)-2-oxoethyl)-5,16-dioxo-2-(2-(pyridin-2-yl)-8,9-dihydro-7H-cyclopenta[h]quinolin-4-yloxy)-1,2,3,5,6,7,8,9,10,11, 13a,14,14a,15,16,16a-hexadecahydrocyclopropa [e]pyrrolo[1,2-a][1,4] diazacyclopentadecine-14a-carboxamide] reads more than 10000 nM; that for `COc1ccc2c(O[C@@H]3C[C@H]4C(=O)N[C@]5(C(=O)NS(=O)(=O)C6CC6)C[C@H]5/C=C\CCCCC[C@H](CC(=O)N5CCCC(F)(F)C5)C(=O)N4C3)cc(-c3nc(C(C)C)cs3)nc2c1C` [Compound 128, (2R,6R,14aR,16aS,Z)-N-(cyclopropylsulfonyl)-6-(2-(3,3-difluoropiperidin-1-yl)-2-oxoethyl)-2-(2-(4-isopropylthiazol-2-yl)-7-methoxy-8-methylquinolin-4-yloxy)-5,16-dioxo-1,2,3,5,6,7,8,9,10,11, 13a,14,14a,15,16,16a-hexadecahydrocyclopropa [e]pyrrolo[1,2-a][1,4] diazacyclopentadecine-14a-carboxamide], less than 1000 nM. The result for `COc1ccc2c(O[C@@H]3C[C@H]4C(=O)N[C@]5(C(=O)NS(=O)(=O)C6CC6)C[C@H]5/C=C\CCCCC[C@H](CC(=O)N5CCCC(F)(F)C5)C(=O)N4C3)cc(-c3cccnc3)nc2c1C` [Compound 129, (2R,6R,14aR,16aS,Z)-N-(cyclopropylsulfonyl)-6-(2-(3,3-difluoropiperidin-1-yl)-2-oxoethyl)-2-(7-methoxy-8-methyl-2-(pyridin-3-yl)quinolin-4-yloxy)-5,16-dioxo-1,2,3,5,6,7,8,9,10,11, 13a,14,14a,15,16,16a-hexadecahydrocyclopropa [e]pyrrolo[1,2-a][1,4] diazacyclopentadecine-14a-carboxamide] reads more than 10000 nM; that for `COc1ccc2c(O[C@@H]3C[C@H]4C(=O)N[C@]5(C(=O)NS(=O)(=O)C6CC6)C[C@H]5/C=C\CCCCC[C@H](CC(=O)N5CCCC(F)(F)C5)C(=O)N4C3)nc(-c3ccccn3)cc2c1Cl` [Compound 130, (2R,6R,14aR,16aS,Z)-2-(5-chloro-6-methoxy-3-(pyridin-2-yl)isoquinolin-1-yloxy)-N-(cyclopropylsulfonyl)-6-(2-(3,3-difluoropiperidin-1-yl)-2-oxoethyl)-5,16-dioxo-1,2,3,5,6,7,8,9,10,11, 13a,14,14a,15,16,16a-hexadecahydrocyclopropa [e]pyrrolo[1,2-a][1,4] diazacyclopentadecine-14a-carboxamide], less than 1000 nM.

For `COc1ccc2c(O[C@@H]3C[C@H]4C(=O)N[C@]5(C(=O)NS(=O)(=O)C6CC6)CC5/C=C\CCCCC[C@H](CC(=O)N5CCC(C(F)(F)F)CC5)C(=O)N4C3)cc(-c3cccnc3)nc2c1C` (stereo partly drawn) [Compound 131, (2R,6R,14aR,16aS,Z)-N-(cyclopropylsulfonyl)-2-(7-methoxy-8-methyl-2-(pyridin-3-yl)quinolin-4-yloxy)-5,16-dioxo-6-(2-oxo-2-(4-(trifluoromethyl)piperidin-1-yl)ethyl)-1,2,3,5,6,7,8,9,10,11, 13a,14,14a,15,16,16a-hexadecahydrocyclopropa [e]pyrrolo[1,2-a][1,4] diazacyclopentadecine-14a-carboxamide], the EC50 was less than 1000 nM.
